These molecules were tested against T1, human HSL (Homo sapiens, UniProt Q05469) (assay: Human Hormone-Sensitive Lipase (HSL) enzyme inhibition assay (colorimetric, DMPT substrate)). Conditions: human full length HSL-His6, 2,3-dimercapto-1-propanol tributyrate substrate, 37° C. 20 minutes, absorbance at 405 nm; read-out: HSL hum IC50.
T1 construct: overlapping PCR to generate a full length human HSL ORF with a 3′-His6 tag; His6 (C); made in house; host or cells: High 5 insect cells (baculovirus, pFast-BAC)
T1 sequence (Q05469 1-1076): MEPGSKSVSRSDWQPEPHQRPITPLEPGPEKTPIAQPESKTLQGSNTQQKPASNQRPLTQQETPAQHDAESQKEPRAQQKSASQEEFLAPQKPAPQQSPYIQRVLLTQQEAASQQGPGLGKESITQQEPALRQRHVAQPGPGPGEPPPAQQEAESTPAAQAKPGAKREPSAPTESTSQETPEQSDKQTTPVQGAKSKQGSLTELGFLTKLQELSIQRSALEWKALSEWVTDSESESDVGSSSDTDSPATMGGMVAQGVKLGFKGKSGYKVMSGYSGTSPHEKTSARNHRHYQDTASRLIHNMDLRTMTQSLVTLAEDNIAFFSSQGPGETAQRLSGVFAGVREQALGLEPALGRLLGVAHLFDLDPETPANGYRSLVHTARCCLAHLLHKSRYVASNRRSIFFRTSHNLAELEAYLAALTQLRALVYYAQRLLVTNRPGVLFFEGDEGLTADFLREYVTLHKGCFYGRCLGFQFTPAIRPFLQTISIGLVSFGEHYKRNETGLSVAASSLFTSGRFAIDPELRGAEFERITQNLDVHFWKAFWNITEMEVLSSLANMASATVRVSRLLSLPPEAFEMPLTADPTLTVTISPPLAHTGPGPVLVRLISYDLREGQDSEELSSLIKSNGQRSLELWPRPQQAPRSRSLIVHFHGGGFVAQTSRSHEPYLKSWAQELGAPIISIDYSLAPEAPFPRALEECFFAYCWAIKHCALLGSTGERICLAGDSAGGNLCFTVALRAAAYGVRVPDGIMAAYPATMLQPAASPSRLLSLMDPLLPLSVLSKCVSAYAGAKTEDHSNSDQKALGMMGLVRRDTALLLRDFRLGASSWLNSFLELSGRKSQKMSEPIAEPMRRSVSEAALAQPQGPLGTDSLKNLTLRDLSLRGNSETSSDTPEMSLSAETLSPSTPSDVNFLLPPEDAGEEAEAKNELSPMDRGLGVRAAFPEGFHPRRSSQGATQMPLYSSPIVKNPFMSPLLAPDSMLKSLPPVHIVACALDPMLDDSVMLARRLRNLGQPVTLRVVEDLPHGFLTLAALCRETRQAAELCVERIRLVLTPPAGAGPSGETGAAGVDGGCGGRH
Format: biochemical
Experimental: 1) Cloning: cDNA was prepared from commercial human brain polyA+ RNA and used as a template in overlapping PCR to generate a full length human HSL ORF with a 3′-His6 tag. This full length insert was cloned into the pFast-BAC vector and the DNA-sequence of several single clones was verified. DNA from a correct full length clone with the 3′His6 tag was used to transform the E. coli strain DH10BAC. Resulting bacmid DNA was used to generate a titered baculovirus stock for protein generation.
Cells were thawed. […] was done at 3×30 sec., Lubrol PX was added to 0.2% final concentration followed by stirring for 15 min. at 4° C. and centrifugation at 25 k×g, 60 min., 4° C. […] Supernatant was removed, the resin washed in the centrifuge vessel using 5 volumes of Base Buffer containing 0.2% Lubrol PX. Centrifugation was done again, then the supernatant discarded. The resin was poured onto a 0.8 μm membrane in a disposable filter unit (Nalge 450-0080), and washed with 5 volumes of Base Buffer containing 0.2% Lubrol PX. It was then washed with 30 volumes of Base Buffer containing 60 mM imidazole pH 7.5 at 4° C. The protein was eluated with 5 volumes of 25 mM Tris-Cl, 300 mM NaCl, 200 mM imidazole, 10 mM 2-mercaptoethanol, pH 7.5 at 4° C. by tumbling resin with buffer end-over-end, 30 min., 4° C. The resin was captured on a 0.2 μm membrane disposable filter unit (Millipore SCGP U02 RE) and the eluate collected in the reservoir. The eluate was concentrated using a 30 k MWCO centrifugal filter device (Sartorius Vivascience Vivacell 100, VC1022), to 20 ml. It was then dialyzed overnight at 4° C., two times against 2 L of 10% glycerol, 25 mM Tris-Cl, 300 mM NaCl, 0.2 mM EDTA, 0.2 mM DTT, pH 7.5 at 4° C. The protein was filtered using a 0.22 μm disposable filter unit (Millipore SCGP00525). The protein concentration was calculated from absorbance at 280 nm, using 280=0.67 cm-1 mg-1. […] The protein was stored at −80° C.
Human Hormone-Sensitive Lipase (HSL) Enzyme Inhibition Assay:
HSL enzyme activity was measured by a colorimetric assay using 2,3-dimercapto-1-propanol tributyrate (Aldrich, St. Louis, Mo.) as a substrate. Typically, 1.5 mM 2,3-dimercapto-1-propanol tributyrate (DMPT) in 100 mM MOPS, pH 7.2, 0.2 mg/ml fatty acid-free BSA was prepared by sonication at 4° C. to homogenous suspension. Test compounds (2 mM stock in DMSO) were diluted 3 fold in series in DMSO. Compound solutions were diluted 24 fold in 1.5 mM DMPT containing solution and 18 ul per well was added to 384-well microplates (Corning Costar). Twelve microliters per well of human HSL (15 ug/ml) was added and the reaction mixture was incubated at 37° C. for 20 minutes. Six microliters of 12 mM dithio-bis-(2-nitrobenzoic acid) (DTNB) in DMSO plus 1.2% SDS and 0.6% Triton X-100 were added and the mixture was incubated at room temperature for 15 minutes. Product production was monitored by reading absorbance at 405 nm on an Envision Reader (PerkinElmer Life and Analytical Sciences, Shelton, Conn.).

Compound | IC50
O=C(CN1CCC2(CC1)CCN(c1ccc(C3CC3)cc1)C2=O)Nc1ccc(F)cc1 [Example 13, 2-[2-(4-Cyclopropyl-phenyl)-1-oxo-2,8-diaza-spiro[4.5]dec-8-yl]-N-(4-fluoro-phenyl)-acetamide] | 80 nM
CCCCNC(=O)C(C(C)C)N1CCC2(CCN(c3ccc(C4CC4)cc3)C2=O)CC1 (centres unmarked) [Example 31, N-Butyl-2-[2-(4-cyclopropyl-phenyl)-1-oxo-2,8-diaza-spiro[4.5]dec-8-yl]-3-methyl-butyramide] | 20 nM
O=C1N(c2ccc(C3CC3)cc2)CCC12CCN(C[C@H](O)c1cccc(Cl)c1)CC2 [Example 36, 8-[(R)-2-(3-Chloro-phenyl)-2-hydroxy-ethyl]-2-(4-cyclopropyl-phenyl)-2,8-diaza-spiro[4.5]decan-1-one] | 30 nM
O=C1N(c2ccc(OCC(F)(F)F)cc2)CCC12CCN(CC(O)c1ccc(Cl)cc1Cl)CC2 (centres unmarked) [Example 44, 8-[2-(2,4-Dichloro-phenyl)-2-hydroxy-ethyl]-2-[4-(2,2,2-trifluoro-ethoxy)-phenyl]-2,8-diaza-spiro[4.5]decan-1-one] | 26 nM
CC(c1ccccc1)N1CCC2(CCN(c3ccc(C4CC4)cc3Cl)C2=O)CC1 (centres unmarked) [Example 6, 2-(2-Chloro-4-cyclopropyl-phenyl)-8-(1-phenyl-ethyl)-2,8-diaza-spiro[4.5]decan-1-one] | 980 nM
CCCCNC(=O)CCN1CCC2(CC1)CCN(c1ccc(C3CC3)cc1)C2=O [Example 18, N-Butyl-3-[2-(4-cyclopropyl-phenyl)-1-oxo-2,8-diaza-spiro[4.5]dec-8-yl]-propionamide] | 460 nM
CC(c1cccc(C(F)(F)F)c1)N1CCC2(CCN(c3ccc(C4CC4)cc3)C2=O)CC1 (centres unmarked) [Example 5, 2-(4-Cyclopropyl-phenyl)-8-[1-(3-trifluoromethyl-phenyl)-ethyl]-2,8-diaza-spiro[4.5]decan-1-one] | 170 nM
COc1ccc(C(C(O)C(N)=O)N2CCC3(CCN(c4ccc(C5CC5)cc4)C3=O)CC2)cc1 (centres unmarked) [Example 40, 3-[2-(4-Cyclopropyl-phenyl)-1-oxo-2,8-diaza-spiro[4.5]dec-8-yl]-2-hydroxy-3-(4-methoxy-phenyl)-propionamide] | 165 nM
CCC(C(=O)Nc1ccc(F)cc1)N1CCC2(CCN(c3ccc(C4CC4)cc3)C2=O)CC1 (centres unmarked) [Example 26, 2-[2-(4-Cyclopropyl-phenyl)-1-oxo-2,8-diaza-spiro[4.5]dec-8-yl]-N-(4-fluoro-phenyl)-butyramide] | 50 nM
O=C(CCN1CCC2(CC1)CCN(c1ccc(C3CC3)cc1)C2=O)NCc1ccc(C(F)(F)F)cc1 [Example 19, 3-[2-(4-Cyclopropyl-phenyl)-1-oxo-2,8-diaza-spiro[4.5]dec-8-yl]-N-(4-trifluoromethyl-benzyl)-propionamide] | 30 nM
O=C1N(c2ccc(C3CC3)cc2)CCC12CCN(CC(O)c1ccccc1)CC2 (centres unmarked) [Example 23, 2-(4-Cyclopropyl-phenyl)-8-(2-hydroxy-2-phenyl-ethyl)-2,8-diaza-spiro[4.5]decan-1-one] | 70 nM
O=C(CN1CCC2(CC1)CCN(c1ccc(C3CC3)cc1)C2=O)N1CCCC1 [Example 14, 2-(4-Cyclopropyl-phenyl)-8-(2-oxo-2-pyrrolidin-1-yl-ethyl)-2,8-diaza-spiro[4.5]decan-1-one] | 220 nM
CCCCNC(=O)[C@H](CCCC)N1CCC2(CCN(c3ccc(C4CC4)cc3)C2=O)CC1 [Example 41, (S)-2-[2-(4-Cyclopropyl-phenyl)-1-oxo-2,8-diaza-spiro[4.5]dec-8-yl]-hexanoic acid butylamide] | 47 nM
CC(O)(CN1CCC2(CC1)CCN(c1ccc(C3CC3)cc1)C2=O)c1ccccc1 (centres unmarked) [Example 34, 2-(4-Cyclopropyl-phenyl)-8-(2-hydroxy-2-phenyl-propyl)-2,8-diaza-spiro[4.5]decan-1-one] | 100 nM
CCCCNC(=O)C(C)N1CCC2(CCN(c3ccc(C4CC4)cc3)C2=O)CC1 (centres unmarked) [Example 27, N-Butyl-2-[2-(4-cyclopropyl-phenyl)-1-oxo-2,8-diaza-spiro[4.5]dec-8-yl]-propionamide] | 30 nM
O=C1N(c2ccc(C3CC3)cc2)CCC12CCN(CC(O)c1ccc(Cl)cc1Cl)CC2 (centres unmarked) [Example 38, 2-(4-Cyclopropyl-phenyl)-8-[2-(2,4-dichloro-phenyl)-2-hydroxy-ethyl]-2,8-diaza-spiro[4.5]decan-1-one] | 30 nM
O=C(CCN1CCC2(CC1)CCN(c1ccc(C3CC3)cc1)C2=O)Nc1ccc(F)cc1 [Example 20, 3-[2-(4-Cyclopropyl-phenyl)-1-oxo-2,8-diaza-spiro[4.5]dec-8-yl]-N-(4-fluoro-phenyl)-propionamide] | 60 nM

Source: US8389539B2, “Azacyclic derivatives” (Hoffman-La Roche Inc., priority 2009, dated 2013)
